Test results from US11083725B2 (priority 2014, dated 2021).

Tested on: NHBE cells
Test: Biolog metabolic array: substrate use by NHBE cells with or without CA09 infection
Assay type: cell-based, human
Details: for Substrate use, 590 nm absorbance normalized to zero hour, 1 hr: Biolog PMM2, 1 hr; for Substrate use, 590 nm absorbance normalized to zero hour, 5 hr: Biolog PMM2, 5 hr; for Substrate use, 590 nm absorbance normalized to zero hour, 7 hr: Biolog PMM2, 7 hr
[1] = Control (uninfected) NHBE cells
[2] = Virus (CA09, MOI 1) infected NHBE cells
[3] = Virus (CA09-infected, MOI 1) NHBE cells
[4] = Virus: CA09-infected NHBE cells, MOI 1, Biolog PMM2

SMILES | 590 nm absorbance normalized to zero hour (substrate use), 1 hr [1] | 590 nm absorbance normalized to zero hour (substrate use), 2 hr [1] | 590 nm absorbance normalized to zero hour (substrate use), 3 hr [1] | 590 nm absorbance normalized to zero hour (substrate use), 4 hr [1] | 590 nm absorbance normalized to zero hour (substrate use), 6 hr [1] | 590 nm absorbance normalized to zero hour (substrate use), 8 hr [1] | 590 nm absorbance normalized to zero hour (substrate use), 9 hr [1] | 590 nm absorbance normalized to zero hour (substrate use), 10 hr [1] | 590 nm absorbance normalized to zero hour (substrate use), 11 hr [1] | Substrate use, 590 nm absorbance normalized to zero hour, 1 hr [1] | Substrate use, 590 nm absorbance normalized to zero hour, 5 hr [1] | Substrate use, 590 nm absorbance normalized to zero hour, 7 hr [1] | 590 nm absorbance normalized to zero hour (substrate use), 1 hr [3] | 590 nm absorbance normalized to zero hour (substrate use), 2 hr [3] | 590 nm absorbance normalized to zero hour (substrate use), 3 hr [3] | 590 nm absorbance normalized to zero hour (substrate use), 4 hr [3] | 590 nm absorbance normalized to zero hour (substrate use), 6 hr [3] | 590 nm absorbance normalized to zero hour (substrate use), 8 hr [3] | 590 nm absorbance normalized to zero hour (substrate use), 9 hr [3] | 590 nm absorbance normalized to zero hour (substrate use), 10 hr [3] | further results
O=C[C@H](O)[C@@H](O)[C@@H](O)[C@H](O)CO [D-Galactose] | 0.95 | 1.46 | 1.73 | 1.56 | 1.78 | 2.22 | 2.53 | 2.67 | 2.53 | 0.95 | 1.88 | 2.03 | 0.91 | 1.21 | 1.47 | 1.60 | 2.03 | 2.29 | 2.54 | 2.63 | Substrate use, 590 nm absorbance normalized to zero hour, 1 hr [2]: 0.91; Substrate use, 590 nm absorbance normalized to zero hour, 5 hr [2]: 1.89; Substrate use, 590 nm absorbance normalized to zero hour, 7 hr [2]: 2.16; 590 nm absorbance normalized to zero hour (substrate use), 11 hr [3]: 2.86
O=C[C@H](O)[C@@H](O)[C@@H](O)CO [L-Arabinose] | 1.72 | 2.30 | 2.99 | 3.04 | 2.95 | 3.74 | 4.05 | 4.01 | 4.09 | 1.72 | 3.33 | 3.87 | 1.79 | 2.45 | 3.01 | 3.10 | 3.66 | 4.01 | 4.41 | 4.50 | 590 nm absorbance normalized to zero hour (substrate use), 5 hr [3]: 3.49; 590 nm absorbance normalized to zero hour (substrate use), 7 hr [3]: 3.82; 590 nm absorbance normalized to zero hour (substrate use), 11 hr [3]: 4.78; 590 nm absorbance normalized to zero hour (substrate use), 1 hr [4]: 1.79; 590 nm absorbance normalized to zero hour (substrate use), 2 hr [4]: 2.45; 590 nm absorbance normalized to zero hour (substrate use), 3 hr [4]: 3.01; 590 nm absorbance normalized to zero hour (substrate use), 4 hr [4]: 3.10; 590 nm absorbance normalized to zero hour (substrate use), 5 hr [4]: 3.49; 590 nm absorbance normalized to zero hour (substrate use), 6 hr [4]: 3.66; 590 nm absorbance normalized to zero hour (substrate use), 7 hr [4]: 3.82; 590 nm absorbance normalized to zero hour (substrate use), 8 hr [4]: 4.01; 590 nm absorbance normalized to zero hour (substrate use), 9 hr [4]: 4.41; 590 nm absorbance normalized to zero hour (substrate use), 10 hr [4]: 4.50; 590 nm absorbance normalized to zero hour (substrate use), 11 hr [4]: 4.78
COC(=O)C(C)=O [Methyl Pyruvate] | 1.32 | 1.57 | 1.25 | 1.36 | 0.77 | 1.65 | 1.74 | 1.79 | 1.76 | 1.32 | 1.59 | 1.51 | 1.93 | 2.20 | 2.60 | 2.51 | 2.87 | 3.03 | 3.24 | 3.21 | 590 nm absorbance normalized to zero hour (substrate use), 5 hr [3]: 2.66; 590 nm absorbance normalized to zero hour (substrate use), 7 hr [3]: 2.99; 590 nm absorbance normalized to zero hour (substrate use), 11 hr [3]: 3.04; 590 nm absorbance normalized to zero hour (substrate use), 1 hr [4]: 1.93; 590 nm absorbance normalized to zero hour (substrate use), 2 hr [4]: 2.20; 590 nm absorbance normalized to zero hour (substrate use), 3 hr [4]: 2.60; 590 nm absorbance normalized to zero hour (substrate use), 4 hr [4]: 2.51; 590 nm absorbance normalized to zero hour (substrate use), 5 hr [4]: 2.66; 590 nm absorbance normalized to zero hour (substrate use), 6 hr [4]: 2.87; 590 nm absorbance normalized to zero hour (substrate use), 7 hr [4]: 2.99; 590 nm absorbance normalized to zero hour (substrate use), 8 hr [4]: 3.03; 590 nm absorbance normalized to zero hour (substrate use), 9 hr [4]: 3.24; 590 nm absorbance normalized to zero hour (substrate use), 10 hr [4]: 3.21; 590 nm absorbance normalized to zero hour (substrate use), 11 hr [4]: 3.04
